The text below walks through data of patent publication US20240246937A1 (MERCK SHARP & DOHME LLC, priority 2021, published 2024).

Molecules are shown by their SMILES.

Chain of recombinant IL4I1 (Q96RQ9 22-567): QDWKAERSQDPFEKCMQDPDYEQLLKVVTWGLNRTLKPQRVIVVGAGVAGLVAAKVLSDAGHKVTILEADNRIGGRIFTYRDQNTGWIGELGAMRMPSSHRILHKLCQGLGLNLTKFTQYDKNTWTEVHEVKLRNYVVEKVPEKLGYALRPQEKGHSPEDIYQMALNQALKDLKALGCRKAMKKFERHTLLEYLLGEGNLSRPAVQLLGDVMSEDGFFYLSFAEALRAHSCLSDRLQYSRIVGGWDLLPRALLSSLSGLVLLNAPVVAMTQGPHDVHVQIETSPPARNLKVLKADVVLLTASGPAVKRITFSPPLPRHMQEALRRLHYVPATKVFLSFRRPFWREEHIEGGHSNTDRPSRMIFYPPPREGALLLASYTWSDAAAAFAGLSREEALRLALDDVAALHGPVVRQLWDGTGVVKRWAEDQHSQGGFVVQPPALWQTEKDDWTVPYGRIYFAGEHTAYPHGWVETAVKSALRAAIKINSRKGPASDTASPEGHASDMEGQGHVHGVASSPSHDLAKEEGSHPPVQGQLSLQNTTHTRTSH

This experiment has as its target recombinant IL4I1 (Homo sapiens (Human), UniProt Q96RQ9). As to the kind of experiment: IL4I1 Enzymatic Assay (Amplex Red/HRP coupled fluorescence detection of H2O2). Format: biochemical. Particulars: 240 min; recombinant IL4I1, four-hour pre-incubation with compound. The protocol:
Interleukin 4 inducible protein 1 (IL4I1) is an L-amino oxidase that catalyzes the oxidation of aromatic residues (Phe, Trp and Tyr): L-amino acid+H2O+O2→2-oxo acid+NH3+H2O2. Equal molar of H2O2 and the corresponding alpha-ketoacid are produced when IL4I1 and substrate are added. In this assay, the hydrogen peroxide generated by IL4I1 is then detected through a coupled reaction with Amplex® Red (10-acetyl-3,7-dihydroxyphenoxazine) and horseradish peroxidase (HRP) to produce resorufin product that could be detected in the form of fluorescence signals. The assessment of the inhibitory effect of small molecules (EC50) on IL4I1 is measured by the effectiveness of the compounds to inhibit the production of H2O2.
Using this assay, the potency (EC50) of each compound was determined from a ten-point (1:3 serial dilution) titration curve using the following outlined procedure. To each well of a black flat-bottom Greiner (Cat #781076) 384 well-plate, 25 nL of compound (0.1% DMSO in final assay volume of 25 μL) was dispensed, followed by the addition of 12.5 μL of 1× assay buffer (50 mM Hepes 7.0 and 0.005% Tween20 (Sigma, Cat #P8341; low peroxide grade)) containing 2 nM of recombinant IL4I1 (R&D Systems, Cat #5684-AO-020). Plates were placed in an ambient temperature humidified chamber for a four-hour pre-incubation with compound. Subsequently, each reaction was initiated by the addition of 12.5 μL 1× assay buffer containing 2 mM of each aromatic amino acids (Phe/Tyr/Trp), 0.1 mM Amplex Red and 2 U/mL of HRP. The final reaction in each well of 25 μL consisted of 1 nM of IL4I1, 1 mM of each residues (Phe, Tyr and Trp), 0.05 mM Amplex Red and 1 U/mL of HRP. It should be noted that the concentrations of Amplex Red and HRP used here were in excess such that the conversion of H2O2 to resorufin product occurred instantaneously and was non-rate limiting. Reactions were allowed to proceed for 120 minutes followed by fluorescence readout on a Spectramax with the following set parameters: 544 nm excitation/590 nm emission, 570 nm cutoff (EnVision is an alternative reader). Dose-response curves were generated by plotting percent effect (% product conversion; Y-axis) vs. Log10 compound concentrations (X-axis). EC50 values were calculated using a non-linear regression, four-parameters sigmoidal dose-response model and are shown in Potency Table 1.
`CC(c1ccc(-c2ccccc2)nc1)N1CCN(C2CCCC2)C(=O)C1=O` (single isomer, unassigned) [Example 99, (R or S)-1-cyclopentyl-4-(1-(6-phenylpyridin-3-yl)ethyl)piperazine-2,3-dione]: the EC50 – broadly, the concentration at which the effect is half-maximal – came to 12 nM.
For `CC(c1ncc(-c2ccccc2)cn1)N1CCN(C2CCCC2)C(=O)C1=O` (single isomer, unassigned) [Example 133, (R or S)-1-cyclopentyl-4-(1-(5-phenylpyrimidin-2-yl)ethyl)piperazine-2,3-dione] the value was 22 nM; for `CC(c1ncc(-c2ccccc2)cn1)N1CCN(C2CCC2)C(=O)C1=O` (single isomer, unassigned) [Example 134, (R or S)-1-cyclobutyl-4-(1-(5-phenylpyrimidin-2-yl)ethyl)piperazine-2,3-dione], 40 nM.
For `O=C1C(=O)N2CCCCC2CN1Cc1nnc(-c2ccccc2)s1` (single isomer, unassigned) [Example 180, (R or S)-2-((5-phenyl-1,3,4-thiadiazol-2-yl)methyl)hexahydro-2H-pyrido[1,2-a]pyrazine-3,4-dione] the value was 97 nM; for `O=C1C(=O)N2CCCCC2CN1Cc1nnc(-c2ccccc2)s1` (single isomer, unassigned) [Example 182, (R or S)-2-((5-phenyl-1,3,4-thiadiazol-2-yl)methyl)hexahydro-2H-pyrido[1,2-a]pyrazine-3,4-dione], 14 nM; for `CC1CN(Cc2ncc(-c3ccccc3)cn2)C(=O)C(=O)N1C1CCCC1` (single isomer, unassigned) [Example 341, (R or S)-4-cyclopentyl-5-methyl-1-((5-phenylpyrimidin-2-yl)methyl)piperazine-2,3-dione], 19 nM.
Turning to `CC1CCC(N2CCN(Cc3ncc(-c4ccccc4)cn3)C(=O)C2=O)C1` (single isomer, unassigned) [Example 344, (R or S, R or S)-1-(3-methylcyclopentyl)-4-((5-phenylpyrimidin-2-yl)methyl)piperazine-2,3-dione], the EC50 was found to be 49 nM.
For `O=C1C(=O)N(C2CCC2)[C@H]2CCC[C@@H]2N1Cc1ccc(-c2ccccc2)nn1` (single isomer, unassigned) [Example 435A, (S,S or R,R)-1-cyclobutyl-4-((6-phenylpyridazin-3-yl)methyl)hexahydro-1H-cyclopenta[b]pyrazine-2,3-dione] the value was 85 nM.
With `O=C1C(=O)N(C2CCC2)C2CCCC2N1Cc1ccc(-c2ccccc2)nn1` (single isomer, unassigned) [Example 435B, (S,R or S,R)-1-cyclobutyl-4-((6-phenylpyridazin-3-yl)methyl)hexahydro-1H-cyclopenta[b]pyrazine-2,3-dione], the EC50 stood at 76 nM.
For `CC1CN(C2CCC2)C(=O)C(=O)N1Cc1nnc(-c2ccccc2)s1` (single isomer, unassigned) [Example 437, (R or S)-1-cyclobutyl-5-methyl-4-((5-phenyl-1,3,4-thiadiazol-2-yl)methyl)piperazine-2,3-dione] the value was 34 nM; for `O=C1C(=O)N(C2CC[C@H](O)C2)CCN1Cc1nnc(-c2ccccc2)s1` (single isomer, unassigned) [Example 438, (R,S or S,R)-1-(3-hydroxycyclopentyl)-4-((5-phenyl-1,3,4-thiadiazol-2-yl)methyl)piperazine-2,3-dione], 40 nM.
Turning to `O=C1C(=O)N([C@@H]2CC[C@@H](c3ccccc3)C2)CCN1Cc1nnc(-c2ccccc2)s1` (single isomer, unassigned) [Example 440A, (R or S, R or S)-1-((5-phenyl-1,3,4-thiadiazol-2-yl)methyl)-4-(3-phenylcyclopentyl)piperazine-2,3-dione], the EC50 is 5 nM.
`O=C1C(=O)N([C@@H]2CC[C@@H](c3ccccc3)C2)CCN1Cc1nnc(-c2ccccc2)s1` (single isomer, unassigned) [Example 440B, (R or S, R or S)-1-((5-phenyl-1,3,4-thiadiazol-2-yl)methyl)-4-(3-phenylcyclopentyl)piperazine-2,3-dione]: the EC50 is 6 nM.
Under `O=C1C(=O)N([C@@H]2CC[C@@H](c3ccccc3)C2)CCN1Cc1nnc(-c2ccccc2)s1` (single isomer, unassigned) [Example 440C, (R or S, R or S)-1-((5-phenyl-1,3,4-thiadiazol-2-yl)methyl)-4-(3-phenylcyclopentyl)piperazine-2,3-dione] stands 10 nM; under `O=C1C(=O)N([C@@H]2CC[C@@H](c3ccccc3)C2)CCN1Cc1nnc(-c2ccccc2)s1` (single isomer, unassigned) [Example 440D, (R or S, R or S)-1-((5-phenyl-1,3,4-thiadiazol-2-yl)methyl)-4-(3-phenylcyclopentyl)piperazine-2,3-dione], 8 nM.
For `O=C1C(=O)N(C2CCC2)CCN1Cc1ccc(-c2ccccc2F)nn1` [Example 1, 1-cyclobutyl-4-((6-(2-fluorophenyl)pyridazin-3-yl)methyl)piperazine-2,3-dione], the EC50 was 10 nM.
Under `O=C1C(=O)N(C23CC(C2)C3)CCN1Cc1nnc(-c2cccc(F)c2)s1` [Example 2, 1-(bicyclo[1.1.1]pentan-1-yl)-4-((5-(3-fluorophenyl)-1,3,4-thiadiazol-2-yl)methyl)piperazine-2,3-dione] stands 9 nM.
As for `O=C1C(=O)N(C2CCCC2)CCN1Cc1ccc(-c2ccccc2)nn1` [Example 3, 1-cyclopentyl-4-((6-phenylpyridazin-3-yl)methyl)piperazine-2,3-dione], the EC50 turned out to be 12 nM.
As for `O=C1C(=O)N(C2CCCC2)CCN1Cc1ncc(-c2ccccc2)cn1` [Example 4, 1-cyclopentyl-4-((5-phenylpyrimidin-2-yl)methyl)piperazine-2,3-dione], the EC50 is 19 nM.
Under `O=C1C(=O)N(C2CCCC2)CCN1Cc1ncc(-c2cncs2)cn1` [Example 5, 1-cyclopentyl-4-((5-(thiazol-5-yl)pyrimidin-2-yl)methyl)piperazine-2,3-dione] stands 50 nM; under `O=C1C(=O)N(C2CCCC2)CCN1Cc1ccc(-c2cnco2)nn1` [Example 6, 1-cyclopentyl-4-((6-(oxazol-5-yl)pyridazin-3-yl)methyl)piperazine-2,3-dione], 43 nM; under `O=C1C(=O)N(C2CC(c3ccccc3)C2)CCN1Cc1ccc(-c2ccccc2)nn1` (stereo not shown) [Example 7, 1-(3-phenylcyclobutyl)-4-((6-phenylpyridazin-3-yl)methyl)piperazine-2,3-dione], 9 nM.
Under `O=C1C(=O)N(C2CCCC2)CCN1Cc1nnc(-c2cccc(F)c2)s1` [Example 8, 1-cyclopentyl-4-((5-(3-fluorophenyl)-1,3,4-thiadiazol-2-yl)methyl)piperazine-2,3-dione] stands 7 nM.
As for `O=C1C(=O)N(C2CCCC2)CCN1Cc1ccc(-c2ccccc2F)nn1` [Example 9, 1-cyclopentyl-4-((6-(2-fluorophenyl)pyridazin-3-yl)methyl)piperazine-2,3-dione], the EC50 came out at 15 nM.
Under `O=C1C(=O)N(C2CCCC2)CCN1Cc1ncc(-c2cncs2)cc1F` [Example 10, 1-cyclopentyl-4-((3-fluoro-5-(thiazol-5-yl)pyridin-2-yl)methyl)piperazine-2,3-dione] stands 21 nM.
